Legend:
Assay in all cases: ActivX kinase probe assay (human PBMC)
Assay type in all cases: binding
JAK1 = JAK1 (Homo sapiens (Human), UniProt P23458); details: JAK1, read-out: percent inhibition
CDC2 = CDC2 (Homo sapiens (Human), UniProt P06493); details: CDC2, read-out: percent inhibition
LKB1 = LKB1 (Homo sapiens (Human), UniProt Q15831); details: LKB1, read-out: percent inhibition
PKR = PKR (Homo sapiens (Human), UniProt P19525); details: PKR, read-out: percent inhibition
IKKb = IKKb (Homo sapiens (Human), UniProt O14920); details: IKKb, read-out: percent inhibition
ULK3 = ULK3 (Homo sapiens (Human), UniProt Q6PHR2); details: ULK3, read-out: percent inhibition
[1] = test system: ZC1/HGK, ZC2/TNIK, ZC3/MINK
ZAP70 = ZAP70 (Homo sapiens (Human), UniProt P43403); details: ZAP70, read-out: percent inhibition
SYK = SYK (Homo sapiens (Human), UniProt P43405); details: SYK, read-out: percent inhibition
PCTAIRE2, PCTAIRE3 = test system: PCTAIRE2, PCTAIRE3
FES = FES (Homo sapiens (Human), UniProt P07332); details: FES, read-out: percent inhibition
FES, sequence (P07332 whole entry): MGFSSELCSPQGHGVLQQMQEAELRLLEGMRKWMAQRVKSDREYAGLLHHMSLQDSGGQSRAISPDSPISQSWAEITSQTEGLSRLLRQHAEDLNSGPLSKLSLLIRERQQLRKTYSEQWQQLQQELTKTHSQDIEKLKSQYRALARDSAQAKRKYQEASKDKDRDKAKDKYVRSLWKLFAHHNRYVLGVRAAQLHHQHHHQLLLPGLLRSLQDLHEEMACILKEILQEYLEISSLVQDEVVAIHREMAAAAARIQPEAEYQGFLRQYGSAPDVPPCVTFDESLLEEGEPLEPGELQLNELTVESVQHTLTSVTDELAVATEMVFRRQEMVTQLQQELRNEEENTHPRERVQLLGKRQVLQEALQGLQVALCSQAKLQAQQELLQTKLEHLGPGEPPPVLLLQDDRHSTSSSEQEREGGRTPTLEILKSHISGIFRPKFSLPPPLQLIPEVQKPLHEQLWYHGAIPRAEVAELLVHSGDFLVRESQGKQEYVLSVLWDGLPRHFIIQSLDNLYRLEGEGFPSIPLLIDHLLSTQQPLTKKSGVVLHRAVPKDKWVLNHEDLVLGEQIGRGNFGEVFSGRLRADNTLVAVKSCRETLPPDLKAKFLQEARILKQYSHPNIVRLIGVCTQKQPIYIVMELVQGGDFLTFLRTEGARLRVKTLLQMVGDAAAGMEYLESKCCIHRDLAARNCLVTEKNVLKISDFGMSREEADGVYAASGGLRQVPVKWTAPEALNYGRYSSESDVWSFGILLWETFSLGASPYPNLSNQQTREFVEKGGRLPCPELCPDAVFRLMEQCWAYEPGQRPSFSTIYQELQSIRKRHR

FRAP = FRAP (Homo sapiens (Human), UniProt P42345); details: FRAP, read-out: percent inhibition
CaMK2d = CaMK2d (Homo sapiens (Human), UniProt Q13557); details: CaMK2d, read-out: percent inhibition
smMLCK = smMLCK (Homo sapiens (Human), UniProt Q15746); details: smMLCK, read-out: percent inhibition
ABL, ARG = test system: ABL, ARG
ACK = ACK (Homo sapiens (Human), UniProt Q07912); details: ACK, read-out: percent inhibition
ACK, sequence (Q07912 whole entry): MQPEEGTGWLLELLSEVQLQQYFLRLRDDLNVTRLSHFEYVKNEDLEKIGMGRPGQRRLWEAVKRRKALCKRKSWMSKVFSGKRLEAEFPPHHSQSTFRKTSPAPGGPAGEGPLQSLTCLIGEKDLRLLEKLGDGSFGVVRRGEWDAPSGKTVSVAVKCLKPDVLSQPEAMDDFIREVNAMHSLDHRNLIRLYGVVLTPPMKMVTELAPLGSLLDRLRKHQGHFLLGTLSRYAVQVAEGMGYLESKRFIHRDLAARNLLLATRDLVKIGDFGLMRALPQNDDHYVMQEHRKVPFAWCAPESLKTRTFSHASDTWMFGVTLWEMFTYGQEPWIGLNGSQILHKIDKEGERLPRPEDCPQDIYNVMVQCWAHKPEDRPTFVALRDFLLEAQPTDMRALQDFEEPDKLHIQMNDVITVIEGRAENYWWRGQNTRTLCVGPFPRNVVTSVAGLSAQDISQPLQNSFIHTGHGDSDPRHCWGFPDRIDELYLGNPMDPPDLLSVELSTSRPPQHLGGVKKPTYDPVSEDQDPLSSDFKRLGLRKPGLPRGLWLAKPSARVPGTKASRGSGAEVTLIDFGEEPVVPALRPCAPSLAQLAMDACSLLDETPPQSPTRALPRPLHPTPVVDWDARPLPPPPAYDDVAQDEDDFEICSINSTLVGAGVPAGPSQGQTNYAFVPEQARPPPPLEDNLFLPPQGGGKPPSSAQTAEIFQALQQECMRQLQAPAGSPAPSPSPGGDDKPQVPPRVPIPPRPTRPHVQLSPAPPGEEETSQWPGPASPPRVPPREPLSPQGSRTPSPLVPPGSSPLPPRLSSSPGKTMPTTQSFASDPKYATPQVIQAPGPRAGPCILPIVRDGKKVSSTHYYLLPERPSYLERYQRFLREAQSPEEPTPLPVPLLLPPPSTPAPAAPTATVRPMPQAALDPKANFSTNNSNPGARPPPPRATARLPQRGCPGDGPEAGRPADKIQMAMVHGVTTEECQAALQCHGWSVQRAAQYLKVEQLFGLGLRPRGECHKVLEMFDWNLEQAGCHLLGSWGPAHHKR

PAN3 = PAN3 (Homo sapiens (Human), UniProt Q58A45); details: PAN3, read-out: percent inhibition
KHS1 = KHS1 (Homo sapiens (Human), UniProt Q9Y4K4); details: KHS1, read-out: percent inhibition
Erk5 = Erk5 (Homo sapiens (Human), UniProt Q13164); details: Erk5, read-out: percent inhibition
Erk5, sequence (Q13164 whole entry): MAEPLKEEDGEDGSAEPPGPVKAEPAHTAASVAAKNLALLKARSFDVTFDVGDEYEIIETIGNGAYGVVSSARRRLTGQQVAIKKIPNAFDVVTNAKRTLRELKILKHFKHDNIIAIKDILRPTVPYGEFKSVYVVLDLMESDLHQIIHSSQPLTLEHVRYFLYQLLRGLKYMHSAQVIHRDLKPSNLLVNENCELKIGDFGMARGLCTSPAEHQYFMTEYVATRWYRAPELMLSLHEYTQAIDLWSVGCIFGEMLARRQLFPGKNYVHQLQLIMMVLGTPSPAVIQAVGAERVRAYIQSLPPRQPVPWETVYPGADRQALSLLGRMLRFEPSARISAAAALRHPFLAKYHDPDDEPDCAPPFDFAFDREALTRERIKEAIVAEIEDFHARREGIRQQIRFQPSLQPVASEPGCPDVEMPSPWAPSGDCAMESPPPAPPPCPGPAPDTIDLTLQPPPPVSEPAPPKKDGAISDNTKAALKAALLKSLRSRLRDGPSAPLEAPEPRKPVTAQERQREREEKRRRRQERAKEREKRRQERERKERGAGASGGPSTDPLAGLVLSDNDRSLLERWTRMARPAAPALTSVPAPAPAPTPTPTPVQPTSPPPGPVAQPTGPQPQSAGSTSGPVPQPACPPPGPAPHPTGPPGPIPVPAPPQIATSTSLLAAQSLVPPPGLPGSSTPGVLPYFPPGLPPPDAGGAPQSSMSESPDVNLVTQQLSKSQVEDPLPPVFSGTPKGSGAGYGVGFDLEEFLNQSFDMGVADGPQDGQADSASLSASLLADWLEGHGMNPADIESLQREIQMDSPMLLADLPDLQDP

ILK = ILK (Homo sapiens (Human), UniProt Q13418); details: ILK, read-out: percent inhibition
SGK3 = SGK3 (Homo sapiens (Human), UniProt Q96BR1); details: SGK3, read-out: percent inhibition
p70S6K, p70S6Kb = test system: p70S6K, p70S6Kb
JAK2 domain2 = JAK2 domain2 (Homo sapiens (Human), UniProt O60674); details: JAK2 domain2, read-out: percent inhibition
Wnk1, Wnk2, Wnk3 = test system: Wnk1, Wnk2, Wnk3
p70S6Kb = p70S6Kb (Homo sapiens (Human), UniProt Q9UBS0); details: p70S6Kb, read-out: percent inhibition
TLK1 = TLK1 (Homo sapiens (Human), UniProt Q9UKI8); details: TLK1, read-out: percent inhibition
IRAK1 = IRAK1 (Homo sapiens (Human), UniProt P51617); details: read-out: percent inhibition
IRAK1, sequence (P51617 whole entry): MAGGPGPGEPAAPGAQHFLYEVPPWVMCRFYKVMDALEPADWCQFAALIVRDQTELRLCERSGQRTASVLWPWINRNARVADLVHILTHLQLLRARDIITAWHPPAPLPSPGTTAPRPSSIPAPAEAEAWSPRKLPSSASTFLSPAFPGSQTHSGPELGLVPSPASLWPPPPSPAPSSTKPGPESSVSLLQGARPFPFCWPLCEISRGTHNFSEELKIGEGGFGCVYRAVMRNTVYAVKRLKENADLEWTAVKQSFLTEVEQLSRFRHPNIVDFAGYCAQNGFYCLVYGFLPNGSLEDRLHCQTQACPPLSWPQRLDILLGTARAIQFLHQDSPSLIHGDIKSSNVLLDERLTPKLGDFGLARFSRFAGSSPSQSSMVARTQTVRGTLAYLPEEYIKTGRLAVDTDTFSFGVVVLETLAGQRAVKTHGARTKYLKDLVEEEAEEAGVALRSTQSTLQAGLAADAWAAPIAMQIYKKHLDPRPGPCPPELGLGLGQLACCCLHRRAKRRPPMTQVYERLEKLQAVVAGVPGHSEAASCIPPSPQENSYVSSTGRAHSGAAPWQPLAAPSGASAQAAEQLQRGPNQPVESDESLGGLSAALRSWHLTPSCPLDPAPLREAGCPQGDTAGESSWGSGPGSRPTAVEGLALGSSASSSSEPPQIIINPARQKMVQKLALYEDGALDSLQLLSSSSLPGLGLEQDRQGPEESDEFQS

Wnk1, Wnk2, Wnk4 = test system: Wnk1, Wnk2, Wnk4
FGR = FGR (Homo sapiens (Human), UniProt P09769); details: FGR, read-out: percent inhibition
MST3 = MST3 (Homo sapiens (Human), UniProt Q9Y6E0); details: MST3, read-out: percent inhibition
MLKL = MLKL (Homo sapiens (Human), UniProt Q8NB16); details: MLKL, read-out: percent inhibition
MLKL, sequence (Q8NB16 whole entry): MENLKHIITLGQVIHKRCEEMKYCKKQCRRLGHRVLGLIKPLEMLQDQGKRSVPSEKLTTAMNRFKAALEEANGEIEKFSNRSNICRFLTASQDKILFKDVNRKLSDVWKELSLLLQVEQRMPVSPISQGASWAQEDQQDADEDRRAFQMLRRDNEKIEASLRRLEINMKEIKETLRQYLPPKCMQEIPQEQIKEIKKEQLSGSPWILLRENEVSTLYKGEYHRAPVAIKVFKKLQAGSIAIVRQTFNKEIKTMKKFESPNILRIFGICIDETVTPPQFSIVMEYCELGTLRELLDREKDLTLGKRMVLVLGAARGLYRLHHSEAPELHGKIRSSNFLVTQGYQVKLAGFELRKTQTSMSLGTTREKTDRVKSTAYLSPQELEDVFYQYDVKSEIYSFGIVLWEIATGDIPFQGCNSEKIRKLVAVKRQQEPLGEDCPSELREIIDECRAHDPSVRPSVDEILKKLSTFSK

IKKa = IKKa (Homo sapiens (Human), UniProt O15111); details: IKKa, read-out: percent inhibition
FAK = FAK (Homo sapiens (Human), UniProt Q05397); details: FAK, read-out: percent inhibition
LYN = LYN (Homo sapiens (Human), UniProt P07948); details: LYN, read-out: percent inhibition
PKD2 = PKD2 (Homo sapiens (Human), UniProt Q9BZL6); details: PKD2, read-out: percent inhibition
PKD2, sequence (Q9BZL6 whole entry): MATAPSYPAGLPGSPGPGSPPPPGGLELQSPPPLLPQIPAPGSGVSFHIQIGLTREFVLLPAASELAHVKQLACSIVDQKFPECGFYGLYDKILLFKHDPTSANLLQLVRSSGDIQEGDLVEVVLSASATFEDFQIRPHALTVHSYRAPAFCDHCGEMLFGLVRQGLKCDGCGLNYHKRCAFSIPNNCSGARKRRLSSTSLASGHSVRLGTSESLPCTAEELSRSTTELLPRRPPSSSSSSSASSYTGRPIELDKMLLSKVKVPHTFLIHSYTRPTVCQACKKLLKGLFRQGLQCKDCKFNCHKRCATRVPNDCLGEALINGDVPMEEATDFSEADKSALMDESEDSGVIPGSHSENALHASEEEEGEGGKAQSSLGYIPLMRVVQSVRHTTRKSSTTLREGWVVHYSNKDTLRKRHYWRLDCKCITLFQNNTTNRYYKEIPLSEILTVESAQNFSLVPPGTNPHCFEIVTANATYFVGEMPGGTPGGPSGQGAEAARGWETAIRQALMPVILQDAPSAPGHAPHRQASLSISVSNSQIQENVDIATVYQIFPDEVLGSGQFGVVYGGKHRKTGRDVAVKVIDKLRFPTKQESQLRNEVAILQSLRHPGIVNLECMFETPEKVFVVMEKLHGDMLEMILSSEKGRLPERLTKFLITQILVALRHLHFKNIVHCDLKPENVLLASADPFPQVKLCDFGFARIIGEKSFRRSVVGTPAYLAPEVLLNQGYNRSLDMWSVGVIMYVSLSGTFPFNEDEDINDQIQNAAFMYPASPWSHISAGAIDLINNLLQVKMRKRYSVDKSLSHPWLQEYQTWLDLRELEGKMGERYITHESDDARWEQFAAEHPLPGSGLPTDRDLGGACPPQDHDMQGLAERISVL

FYN = FYN (Homo sapiens (Human), UniProt P06241); details: FYN, read-out: percent inhibition

CDC2, sequence (P06493 whole entry): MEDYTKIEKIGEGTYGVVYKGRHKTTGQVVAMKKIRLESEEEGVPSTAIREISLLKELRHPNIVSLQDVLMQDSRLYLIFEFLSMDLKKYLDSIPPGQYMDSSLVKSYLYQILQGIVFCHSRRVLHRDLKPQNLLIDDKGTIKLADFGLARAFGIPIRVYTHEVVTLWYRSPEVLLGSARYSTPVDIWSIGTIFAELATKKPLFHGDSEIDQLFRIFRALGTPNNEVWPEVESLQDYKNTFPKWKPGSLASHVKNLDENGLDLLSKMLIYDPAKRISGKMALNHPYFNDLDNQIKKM

Compound: Cn1cc(-c2c[nH]c3ncnc(N4CCOCC4)c23)cn1 [Example 1, 5-(1-Methyl-1H-pyrazol-4-yl)-4-(morpholin-4-yl)-7H-pyrrolo[2,3-d]pyrimidine]
- inhibition at 0.1 µM (JAK1; 0.1 μM): 15%
- inhibition at 1 µM (JAK1; 1 μM): 54.2%
- inhibition at 0.1 µM (CDC2; 0.1 μM): -4%
- inhibition at 1 µM (CDC2; 1 μM): 14.7%
- inhibition at 0.1 µM (LKB1; 0.1 μM): -1.1%
- inhibition at 1 µM (LKB1; 1 μM): -14%
- inhibition at 0.1 µM (PKR; 0.1 μM): -4.3%
- inhibition at 1 µM (PKR; 1 μM): -17.3%
- inhibition at 0.1 µM (IKKb; 0.1 μM): 16.1%
- inhibition at 1 µM (IKKb; 1 μM): 10.8%
- inhibition at 0.1 µM (ULK3; 0.1 μM): -1.9%
- inhibition at 1 µM (ULK3; 1 μM): 8%
- percent inhibition ([1]; 0.1 μM): −18%
- percent inhibition ([1]; 1 μM): 4.9%
- inhibition at 0.1 µM (ZAP70; 0.1 μM): -23.2%
- inhibition at 1 µM (ZAP70; 1 μM): 3.1%
- inhibition at 0.1 µM (SYK; 0.1 μM): -8.9%
- inhibition at 1 µM (SYK; 1 μM): -6.1%
- percent inhibition (PCTAIRE2, PCTAIRE3; 0.1 μM): 7.5%
- percent inhibition (PCTAIRE2, PCTAIRE3; 1 μM): −2.5%
- inhibition at 0.1 µM (FES; 0.1 μM): 4.3%
- inhibition at 1 µM (FES; 1 μM): -0.9%
- inhibition at 0.1 µM (FRAP; 0.1 μM): -3.2%
- inhibition at 1 µM (FRAP; 1 μM): -1.2%
- inhibition at 0.1 µM (CaMK2d; 0.1 μM): -45.3%
- inhibition at 1 µM (CaMK2d; 1 μM): -38.1%
- inhibition at 0.1 µM (smMLCK; 0.1 μM): -11.5%
- inhibition at 1 µM (smMLCK; 1 μM): -1.9%
- percent inhibition (ABL, ARG; 0.1 μM): 25.8%
- percent inhibition (ABL, ARG; 1 μM): 22.5%
- inhibition at 0.1 µM (ACK; 0.1 μM): 5.2%
- inhibition at 1 µM (ACK; 1 μM): -8%
- inhibition at 0.1 µM (PAN3; 0.1 μM): 0.6%
- inhibition at 1 µM (PAN3; 1 μM): 0.8%
- inhibition at 0.1 µM (KHS1; 0.1 μM): 17.8%
- inhibition at 1 µM (KHS1; 1 μM): 24.6%
- inhibition at 0.1 µM (Erk5; 0.1 μM): -32.8%
- inhibition at 1 µM (Erk5; 1 μM): -41.9%
- inhibition at 0.1 µM (ILK; 0.1 μM): -34%
- inhibition at 1 µM (ILK; 1 μM): -56.6%
- inhibition at 0.1 µM (SGK3; 0.1 μM): 2.5%
- inhibition at 1 µM (SGK3; 1 μM): 9.9%
- percent inhibition (p70S6K, p70S6Kb; 0.1 μM): 9.4%
- percent inhibition (p70S6K, p70S6Kb; 1 μM): −3.5%
- inhibition at 0.1 µM (JAK2 domain2; 0.1 μM): 13.8%
- inhibition at 1 µM (JAK2 domain2; 1 μM): 16.7%
- percent inhibition (Wnk1, Wnk2, Wnk3; 0.1 μM): −18.8%
- percent inhibition (Wnk1, Wnk2, Wnk3; 1 μM): −24%
- inhibition at 0.1 µM (p70S6Kb; 0.1 μM): 15%
- inhibition at 1 µM (p70S6Kb; 1 μM): 10.1%
- inhibition at 0.1 µM (TLK1; 0.1 μM): 7.8%
- inhibition at 1 µM (TLK1; 1 μM): 2.7%
- inhibition at 1 µM (IRAK1; IRAK1, 1 μM): -9.1%
- inhibition at 0.1 µM (IRAK1): -13.8%
- percent inhibition (Wnk1, Wnk2, Wnk4; 0.1 μM): −15%
- percent inhibition (Wnk1, Wnk2, Wnk4; 1 μM): −13.5%
- inhibition at 0.1 µM (FGR; 0.1 μM): 12.9%
- inhibition at 1 µM (FGR; 1 μM): 4.6%
- inhibition at 0.1 µM (MST3; 0.1 μM): 10.9%
- inhibition at 1 µM (MST3; 1 μM): 28.4%
- inhibition at 0.1 µM (MLKL; 0.1 μM): 1.6%
- inhibition at 1 µM (MLKL; 1 μM): 8.4%
- inhibition at 0.1 µM (IKKa; 0.1 μM): -20%
- inhibition at 1 µM (IKKa; 1 μM): -40.5%
- inhibition at 0.1 µM (FAK; 0.1 μM): 18%
- inhibition at 1 µM (FAK; 1 μM): 20%
- inhibition at 0.1 µM (LYN; 0.1 μM): 3.8%
- inhibition at 1 µM (LYN; 1 μM): 7.8%
- inhibition at 0.1 µM (PKD2; 0.1 μM): 2.7%
- inhibition at 1 µM (PKD2; 1 μM): 20.1%
- inhibition at 0.1 µM (FYN; 0.1 μM): 6.7%
- inhibition at 1 µM (FYN; 1 μM): -10.1%

Reference: US9156845B2, “4-(substituted amino)-7H-pyrrolo[2,3-d] pyrimidines as LRRK2 inhibitors” (Pfizer Inc., priority 2012, dated 2015)
